Data set [1] relates to Plasmodium falciparum. As to the kind of experiment: Antiplasmodial activity against chloroquine-resistant Plasmodium falciparum W2 after 48 hrs by YOYO-1 dye-based flow cytometry. Format: functional, organism-based. The conditions noted are these: W2, 48 h. On the technique in general: Flow cytometry measures light scatter and fluorescence of single cells or particles in a stream.

Data set [2] relates to HeLa. As to the kind of experiment: Cytotoxicity against human HeLa cells assessed as reduction in cell viability after 24 hrs by trypan blue-based hemacytometer counting analysis.
A short description of data set [3]: Selectivity index, ratio of IC50 for human HeLa cells to IC50 for chloroquine-resistant Plasmodium falciparum W2. Format: toxicity. The conditions noted are these: read-out: Ratio IC50.

Molecule `COc1cc(C2=NN(C(C)=O)C(c3ccccc3)C2)ccc1OCc1cn(CCNc2ccnc3cc(Cl)ccc23)nn1` (stereo unspecified) came in with a half-inhibitory concentration (IC50) in data set [1] of 0.286 µM.
`COc1ccc(C2CC(c3ccc(OCc4cn(CCCNc5ccnc6cc(Cl)ccc56)nn4)cc3)=NN2C(C)=O)cc1OC` (stereo unspecified) displayed an IC50 in data set [1] of 0.504 µM.
For `COc1ccc(/C=C/C(=O)c2ccc(OCc3cn(CCCNc4ccnc5cc(Cl)ccc45)nn3)cc2)cc1OC`, the IC50 in data set [1] was > 10 µM.
`COc1ccc(C2CC(c3ccc(OCc4cn(CCNc5ccnc6cc(Cl)ccc56)nn4)c(OC)c3)=NN2C(C)=O)cc1OC` (stereo unspecified): the IC50 in data set [2] is 42.7 µM; in data set [1] it was 0.0537 µM. In data set [3], the selectivity ratio is 795.
The corresponding values for `COc1cc(C2=NN(C(C)=O)C(c3ccccc3)C2)ccc1OCc1cn(CCCNc2ccnc3cc(Cl)ccc23)nn1` (stereo unspecified) are 46.1 µM, 0.077 µM and 598.
Take `COc1cc(C(=O)/C=C/c2cc(OC)c(OC)c(OC)c2)ccc1OCc1cn(CCCNc2ccnc3cc(Cl)ccc23)nn1`: in data set [1], the IC50 was determined as 0.831 µM.
Regarding `COc1ccc(/C=C/C(=O)c2ccc(OCc3cn(CCNc4ccnc5cc(Cl)ccc45)nn3)cc2)cc1`, the values for the concentration for half-maximal inhibition (IC50) in data set [2] and in data set [1] were 35.6 µM and 0.114 µM, respectively. In addition, the selectivity ratio in data set [3] was 311.
In the case of `COc1ccc(C2CC(c3ccc(OCc4cn(CCCNc5ccnc6cc(Cl)ccc56)nn4)c(OC)c3)=NN2C(C)=O)cc1` (stereo unspecified), 1.57 µM corresponded to half-maximal inhibition in data set [1] (IC50).
On the same count and under the same terms, the same measure for `COc1ccc(/C=C/C(=O)c2ccc(OCc3cn(CCCNc4ccnc5cc(Cl)ccc45)nn3)c(OC)c2)cc1OC`: 0.337 µM; for `COc1cc(/C=C/C(=O)c2ccc(OCc3cn(CCNc4ccnc5cc(Cl)ccc45)nn3)cc2)cc(OC)c1OC`: 0.175 µM; for `O=C(/C=C/c1ccccc1)c1ccc(OCc2cn(CCCNc3ccnc4cc(Cl)ccc34)nn2)cc1`: > 10 µM.
As for `COc1cc(/C=C/C(=O)c2ccc(OCc3cn(CCCNc4ccnc5cc(Cl)ccc45)nn3)cc2)cc(OC)c1OC`, in data set [1], 5.28 µM corresponded to half-maximal inhibition (IC50).
With `COc1ccc(C2CC(c3ccc(OCc4cn(CCNc5ccnc6cc(Cl)ccc56)nn4)cc3)=NN2C(C)=O)cc1` (stereo unspecified), the figures for the IC50 in data set [2] and in data set [1] were 29.2 µM and 0.131 µM, respectively. Also, the selectivity ratio in data set [3] amounted to 223.
In the case of `COc1cc(C2=NN(C(C)=O)C(c3cc(OC)c(OC)c(OC)c3)C2)ccc1OCc1cn(CCCNc2ccnc3cc(Cl)ccc23)nn1` (stereo unspecified), the IC50 in data set [1] is 1.74 µM.
Still for that read-out and setting: with `COc1cc(C2=NN(C(C)=O)C(c3cc(OC)c(OC)c(OC)c3)C2)ccc1OCc1cn(CCNc2ccnc3cc(Cl)ccc23)nn1` (stereo unspecified) the figure was 0.139 µM; with `COc1ccc(/C=C/C(=O)c2ccc(OCc3cn(CCNc4ccnc5cc(Cl)ccc45)nn3)c(OC)c2)cc1OC`, 0.83 µM; with `COc1ccc(/C=C/C(=O)c2ccc(OCc3cn(CCCNc4ccnc5cc(Cl)ccc45)nn3)cc2)cc1`, > 10 µM.
In data set [1], `COc1cc(C2CC(c3ccc(OCc4cn(CCNc5ccnc6cc(Cl)ccc56)nn4)cc3)=NN2C(C)=O)cc(OC)c1OC` (stereo unspecified) displayed an IC50 of 0.426 µM.
Regarding `COc1ccc(C2CC(c3ccc(OCc4cn(CCCNc5ccnc6cc(Cl)ccc56)nn4)cc3)=NN2C(C)=O)cc1` (stereo unspecified), in data set [1], the half-inhibitory concentration (IC50) was determined as 0.498 µM.
`CC(=O)N1N=C(c2ccc(OCc3cn(CCNc4ccnc5cc(Cl)ccc45)nn3)cc2)CC1c1ccccc1` (stereo unspecified) yielded an IC50 in data set [1] of 0.237 µM.
Regarding `COc1ccc(/C=C/C(=O)c2ccc(OCc3cn(CCNc4ccnc5cc(Cl)ccc45)nn3)cc2)cc1OC`, the half-inhibitory concentration (IC50) in data set [2] came out at 12.7 µM; in data set [1] it was 0.141 µM. Moreover, the selectivity ratio in data set [3] worked out at 90.
Regarding `COc1ccc(C2CC(c3ccc(OCc4cn(CCCNc5ccnc6cc(Cl)ccc56)nn4)c(OC)c3)=NN2C(C)=O)cc1OC` (stereo unspecified), the IC50 in data set [1] was found to be 1.68 µM.
With `COc1ccc(/C=C/C(=O)c2ccc(OCc3cn(CCCNc4ccnc5cc(Cl)ccc45)nn3)c(OC)c2)cc1`, in data set [1], the IC50 is > 10 µM.
`COc1cc(C(=O)/C=C/c2ccccc2)ccc1OCc1cn(CCNc2ccnc3cc(Cl)ccc23)nn1` displayed an IC50 in data set [1] of 0.355 µM.
Turning to `COc1cc(C(=O)/C=C/c2cc(OC)c(OC)c(OC)c2)ccc1OCc1cn(CCNc2ccnc3cc(Cl)ccc23)nn1`, inhibition in data set [1] was half-maximal at 0.355 µM (IC50).
Regarding `COc1ccc(C2CC(c3ccc(OCc4cn(CCNc5ccnc6cc(Cl)ccc56)nn4)c(OC)c3)=NN2C(C)=O)cc1` (stereo unspecified), the IC50 in data set [2] amounted to 32.8 µM; in data set [1], 0.0587 µM. Besides, in data set [3], the selectivity ratio came out at 558.
Molecule `COc1cc(C2CC(c3ccc(OCc4cn(CCCNc5ccnc6cc(Cl)ccc56)nn4)cc3)=NN2C(C)=O)cc(OC)c1OC` (stereo unspecified) came in with an IC50 in data set [1] of 2.42 µM.
Molecule `COc1ccc(C2CC(c3ccc(OCc4cn(CCNc5ccnc6cc(Cl)ccc56)nn4)cc3)=NN2C(C)=O)cc1OC` (stereo unspecified) gave an IC50 in data set [1] of 0.152 µM.
With `O=C(/C=C/c1ccccc1)c1ccc(OCc2cn(CCNc3ccnc4cc(Cl)ccc34)nn2)cc1`, the IC50 in data set [1] stood at 0.172 µM.
`CC(=O)N1N=C(c2ccc(OCc3cn(CCCNc4ccnc5cc(Cl)ccc45)nn3)cc2)CC1c1ccccc1` (stereo unspecified) returned an IC50 in data set [1] of 3 µM.
In the case of `COc1ccc(/C=C/C(=O)c2ccc(OCc3cn(CCNc4ccnc5cc(Cl)ccc45)nn3)c(OC)c2)cc1`, the IC50 in data set [1] amounted to 1.91 µM.
Turning to `COc1cc(C(=O)/C=C/c2ccccc2)ccc1OCc1cn(CCCNc2ccnc3cc(Cl)ccc23)nn1`, in data set [1], 6.96 µM corresponded to half-maximal inhibition (IC50).
Regarding `C[C@@H]1CC[C@H]2[C@@H](C)C(=O)O[C@@H]3O[C@@]4(C)CC[C@@H]1[C@]32OO4` [ARTEMISININ], in data set [1], the IC50 came to 0.0321 µM.
Consider `COc1cccc2c1C(=O)c1c(O)c3c(c(O)c1C2=O)C[C@@](O)(C(=O)CO)C[C@@H]3O[C@H]1C[C@H](N)[C@H](O)[C@H](C)O1` [DOXORUBICIN], for which, in data set [2], the IC50 was found to be 8.3 µM.

What is called IC50 is the concentration needed to halve the response being measured.

The values above are taken from ChEMBL document CHEMBL4130364, “4-Aminoquinoline-chalcone/-N-acetylpyrazoline conjugates: Synthesis and antiplasmodial evaluation” (Eur J Med Chem, 2017).
